From the kinase profiling compilation of Christmann-Franck et al. (2016)

Experiments:
Assay in all cases: KINOMEscan competition binding
[1] = system: ABL1 (human), P00519 [Y253F]; settings: compound 1.0 µM
AKT1 (human) = AKT1 (human) (UniProt P31749); settings: compound 1.0 µM
AXL (human) = AXL (human) (UniProt P30530); settings: compound 1.0 µM
CAMK2G (human) = CAMK2G (human) (UniProt Q13555); settings: compound 1.0 µM
CDKL2 (human) = CDKL2 (human) (UniProt Q92772); settings: compound 1.0 µM
CSNK1G2 (human) = CSNK1G2 (human) (UniProt P78368); settings: compound 1.0 µM
CSNK2A1 (human) = CSNK2A1 (human) (UniProt P68400); settings: compound 1.0 µM
DAPK2 (human) = DAPK2 (human) (UniProt Q9UIK4); settings: compound 1.0 µM
EPHA7 (human) = EPHA7 (human) (UniProt Q15375); settings: compound 1.0 µM
EPHB2 (human) = EPHB2 (human) (UniProt P29323); settings: compound 1.0 µM
ERN1 (human) = ERN1 (human) (UniProt O75460); settings: compound 1.0 µM
[2] = system: FLT3 (human), P36888 [ITD]; settings: compound 1.0 µM
FLT3 (human), P36888 [ITD], sequence (P36888 whole entry, looked up, change not shown): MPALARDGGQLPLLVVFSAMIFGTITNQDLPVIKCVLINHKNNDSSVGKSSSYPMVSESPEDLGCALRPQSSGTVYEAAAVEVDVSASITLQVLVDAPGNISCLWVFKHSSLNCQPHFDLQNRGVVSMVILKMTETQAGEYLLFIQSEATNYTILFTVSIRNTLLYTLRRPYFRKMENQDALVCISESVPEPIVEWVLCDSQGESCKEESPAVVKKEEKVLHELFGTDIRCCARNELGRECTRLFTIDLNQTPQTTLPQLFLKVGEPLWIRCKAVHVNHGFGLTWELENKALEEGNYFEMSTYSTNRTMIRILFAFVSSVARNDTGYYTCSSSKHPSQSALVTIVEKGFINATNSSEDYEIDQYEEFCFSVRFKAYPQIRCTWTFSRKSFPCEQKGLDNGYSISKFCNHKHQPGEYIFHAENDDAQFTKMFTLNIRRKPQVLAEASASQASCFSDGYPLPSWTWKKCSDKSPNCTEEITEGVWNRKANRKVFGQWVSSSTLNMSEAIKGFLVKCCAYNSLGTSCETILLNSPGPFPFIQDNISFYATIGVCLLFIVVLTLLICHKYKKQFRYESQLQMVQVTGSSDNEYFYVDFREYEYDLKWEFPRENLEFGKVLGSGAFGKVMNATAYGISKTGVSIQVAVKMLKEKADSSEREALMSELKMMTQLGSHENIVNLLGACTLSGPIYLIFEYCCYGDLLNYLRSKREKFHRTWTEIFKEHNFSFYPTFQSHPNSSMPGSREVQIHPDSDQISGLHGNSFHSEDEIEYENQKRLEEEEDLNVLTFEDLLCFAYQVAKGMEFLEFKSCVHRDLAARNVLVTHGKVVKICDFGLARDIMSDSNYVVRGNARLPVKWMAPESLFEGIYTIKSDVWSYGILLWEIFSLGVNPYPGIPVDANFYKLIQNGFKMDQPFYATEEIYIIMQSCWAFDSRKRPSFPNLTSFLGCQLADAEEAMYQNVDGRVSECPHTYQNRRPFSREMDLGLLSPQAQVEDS

GRK1 (human) = GRK1 (human) (UniProt Q15835); settings: compound 1.0 µM
[3] = system: KIT (human), P10721 [D816H]; settings: compound 1.0 µM
[4] = system: KIT (human), P10721 [D816V]; settings: compound 1.0 µM
LATS2 (human) = LATS2 (human) (UniProt Q9NRM7); settings: compound 1.0 µM
LIMK2 (human) = LIMK2 (human) (UniProt P53671); settings: compound 1.0 µM
LIMK2 (human), sequence (P53671 whole entry, looked up): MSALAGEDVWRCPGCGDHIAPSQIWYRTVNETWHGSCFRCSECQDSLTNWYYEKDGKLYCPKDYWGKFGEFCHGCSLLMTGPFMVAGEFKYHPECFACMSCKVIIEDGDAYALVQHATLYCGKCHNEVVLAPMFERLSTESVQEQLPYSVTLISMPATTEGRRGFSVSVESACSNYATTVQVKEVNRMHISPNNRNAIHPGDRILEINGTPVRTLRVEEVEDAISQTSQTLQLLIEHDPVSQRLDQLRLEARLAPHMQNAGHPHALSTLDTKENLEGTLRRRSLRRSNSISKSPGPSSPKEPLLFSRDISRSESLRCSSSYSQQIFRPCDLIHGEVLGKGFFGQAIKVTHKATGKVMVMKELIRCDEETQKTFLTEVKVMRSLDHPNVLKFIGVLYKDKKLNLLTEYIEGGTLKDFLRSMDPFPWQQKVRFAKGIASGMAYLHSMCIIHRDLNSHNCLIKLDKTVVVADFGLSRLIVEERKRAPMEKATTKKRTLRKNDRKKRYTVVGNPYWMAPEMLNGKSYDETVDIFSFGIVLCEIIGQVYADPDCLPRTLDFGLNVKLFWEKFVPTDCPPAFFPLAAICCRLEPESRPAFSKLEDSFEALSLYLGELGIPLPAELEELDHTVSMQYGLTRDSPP

MAP3K7 (human) = MAP3K7 (human) (UniProt O43318); settings: compound 1.0 µM
MATK (human) = MATK (human) (UniProt P42679); settings: compound 1.0 µM
MATK (human), sequence (P42679 whole entry, looked up): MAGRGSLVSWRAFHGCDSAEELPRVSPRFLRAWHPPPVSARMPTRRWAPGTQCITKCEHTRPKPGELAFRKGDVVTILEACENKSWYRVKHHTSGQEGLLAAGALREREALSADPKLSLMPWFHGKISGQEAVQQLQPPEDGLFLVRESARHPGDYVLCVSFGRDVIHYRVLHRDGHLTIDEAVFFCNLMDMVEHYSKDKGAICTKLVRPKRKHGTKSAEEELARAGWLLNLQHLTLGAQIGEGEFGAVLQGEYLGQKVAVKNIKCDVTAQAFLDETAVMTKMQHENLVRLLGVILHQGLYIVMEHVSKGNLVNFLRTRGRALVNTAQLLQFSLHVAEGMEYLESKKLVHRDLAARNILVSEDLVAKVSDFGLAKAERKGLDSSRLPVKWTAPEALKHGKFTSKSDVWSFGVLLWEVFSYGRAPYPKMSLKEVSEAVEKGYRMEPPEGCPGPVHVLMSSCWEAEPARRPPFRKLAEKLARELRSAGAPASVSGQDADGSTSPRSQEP

MERTK (human) = MERTK (human) (UniProt Q12866); settings: compound 1.0 µM
MERTK (human), sequence (Q12866 whole entry, looked up): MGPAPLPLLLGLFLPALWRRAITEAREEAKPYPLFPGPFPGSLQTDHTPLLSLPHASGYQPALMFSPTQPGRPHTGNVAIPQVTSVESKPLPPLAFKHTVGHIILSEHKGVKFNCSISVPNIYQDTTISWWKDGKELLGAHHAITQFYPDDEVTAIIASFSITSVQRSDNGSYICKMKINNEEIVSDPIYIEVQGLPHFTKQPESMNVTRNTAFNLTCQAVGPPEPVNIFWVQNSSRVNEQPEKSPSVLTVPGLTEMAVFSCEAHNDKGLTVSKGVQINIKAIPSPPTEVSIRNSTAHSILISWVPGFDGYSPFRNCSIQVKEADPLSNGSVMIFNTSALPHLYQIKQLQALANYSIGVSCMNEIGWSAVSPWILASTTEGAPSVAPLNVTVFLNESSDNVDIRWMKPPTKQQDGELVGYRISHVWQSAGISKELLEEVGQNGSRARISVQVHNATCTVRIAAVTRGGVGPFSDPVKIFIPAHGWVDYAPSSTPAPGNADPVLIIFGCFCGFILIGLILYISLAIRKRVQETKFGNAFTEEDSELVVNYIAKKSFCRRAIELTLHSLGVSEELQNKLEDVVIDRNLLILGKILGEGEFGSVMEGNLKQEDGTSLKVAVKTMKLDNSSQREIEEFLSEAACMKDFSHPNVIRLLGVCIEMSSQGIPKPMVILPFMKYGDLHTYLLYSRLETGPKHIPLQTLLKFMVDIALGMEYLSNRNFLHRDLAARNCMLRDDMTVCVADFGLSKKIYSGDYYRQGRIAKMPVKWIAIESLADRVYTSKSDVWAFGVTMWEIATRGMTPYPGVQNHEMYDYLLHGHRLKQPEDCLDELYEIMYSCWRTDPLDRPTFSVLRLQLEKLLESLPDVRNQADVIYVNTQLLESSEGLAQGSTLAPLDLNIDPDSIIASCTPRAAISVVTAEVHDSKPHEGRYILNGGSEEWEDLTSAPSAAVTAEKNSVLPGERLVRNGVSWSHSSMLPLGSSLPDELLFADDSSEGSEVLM

[5] = system: MET (human), P08581 [Y1235D]; settings: compound 1.0 µM
MST4 (human) = MST4 (human) (UniProt Q9P289); settings: compound 1.0 µM
MST4 (human), sequence (Q9P289 whole entry, looked up): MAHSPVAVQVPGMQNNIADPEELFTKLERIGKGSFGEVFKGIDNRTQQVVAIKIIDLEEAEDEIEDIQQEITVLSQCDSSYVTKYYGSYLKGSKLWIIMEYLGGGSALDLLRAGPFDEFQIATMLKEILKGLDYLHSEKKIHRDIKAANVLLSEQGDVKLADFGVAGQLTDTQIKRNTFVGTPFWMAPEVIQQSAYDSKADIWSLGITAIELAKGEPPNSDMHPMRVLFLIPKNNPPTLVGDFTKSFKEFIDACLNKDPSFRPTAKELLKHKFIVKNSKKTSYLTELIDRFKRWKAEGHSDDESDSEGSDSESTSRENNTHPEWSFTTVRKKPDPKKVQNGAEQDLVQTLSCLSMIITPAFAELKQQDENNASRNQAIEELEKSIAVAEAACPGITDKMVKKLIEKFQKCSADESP

MUSK (human) = MUSK (human) (UniProt O15146); settings: compound 1.0 µM
PAK4 (human) = PAK4 (human) (UniProt O96013); settings: compound 1.0 µM
PAK6 (human) = PAK6 (human) (UniProt Q9NQU5); settings: compound 1.0 µM
PDGFRA (human) = PDGFRA (human) (UniProt P16234); settings: compound 1.0 µM
PDPK1 (human) = PDPK1 (human) (UniProt O15530); settings: compound 1.0 µM
PI4KB (human) = PI4KB (human) (UniProt Q9UBF8); settings: compound 1.0 µM
PIK3CA (human) = PIK3CA (human) (UniProt P42336); settings: compound 1.0 µM
PIP4K2C (human) = PIP4K2C (human) (UniProt Q8TBX8)
PIP4K2C (human), sequence (Q8TBX8 whole entry, looked up): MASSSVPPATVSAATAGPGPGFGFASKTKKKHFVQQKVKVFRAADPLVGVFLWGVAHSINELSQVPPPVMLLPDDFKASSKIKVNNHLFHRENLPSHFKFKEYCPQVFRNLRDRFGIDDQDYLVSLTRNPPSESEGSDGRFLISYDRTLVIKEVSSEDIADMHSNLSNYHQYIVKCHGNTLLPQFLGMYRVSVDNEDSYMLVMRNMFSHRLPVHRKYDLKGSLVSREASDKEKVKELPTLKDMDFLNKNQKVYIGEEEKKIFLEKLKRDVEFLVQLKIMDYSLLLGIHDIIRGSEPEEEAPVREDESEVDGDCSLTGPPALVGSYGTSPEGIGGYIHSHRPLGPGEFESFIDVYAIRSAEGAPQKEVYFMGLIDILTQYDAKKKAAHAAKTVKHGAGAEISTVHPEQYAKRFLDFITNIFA

PIP5K1C (human) = PIP5K1C (human) (UniProt O60331); settings: compound 1.0 µM
PKMYT1 (human) = PKMYT1 (human) (UniProt Q99640); settings: compound 1.0 µM
PLK4 (human) = PLK4 (human) (UniProt O00444); settings: compound 1.0 µM
PRKACA (human) = PRKACA (human) (UniProt P17612); settings: compound 1.0 µM
PRKG1 (human) = PRKG1 (human) (UniProt Q13976); settings: compound 1.0 µM
PTK6 (human) = PTK6 (human) (UniProt Q13882); settings: compound 1.0 µM
RIPK1 (human) = RIPK1 (human) (UniProt Q13546); settings: compound 1.0 µM
STK36 (human) = STK36 (human) (UniProt Q9NRP7); settings: compound 1.0 µM
SYK (human) = SYK (human) (UniProt P43405); settings: compound 1.0 µM
TAOK3 (human) = TAOK3 (human) (UniProt Q9H2K8); settings: compound 1.0 µM
TESK1 (human) = TESK1 (human) (UniProt Q15569); settings: compound 1.0 µM
TNK1 (human) = TNK1 (human) (UniProt Q13470); settings: compound 1.0 µM
WEE2 (human) = WEE2 (human) (UniProt P0C1S8); settings: compound 1.0 µM

CAMK2G (human), sequence (Q13555 whole entry, looked up): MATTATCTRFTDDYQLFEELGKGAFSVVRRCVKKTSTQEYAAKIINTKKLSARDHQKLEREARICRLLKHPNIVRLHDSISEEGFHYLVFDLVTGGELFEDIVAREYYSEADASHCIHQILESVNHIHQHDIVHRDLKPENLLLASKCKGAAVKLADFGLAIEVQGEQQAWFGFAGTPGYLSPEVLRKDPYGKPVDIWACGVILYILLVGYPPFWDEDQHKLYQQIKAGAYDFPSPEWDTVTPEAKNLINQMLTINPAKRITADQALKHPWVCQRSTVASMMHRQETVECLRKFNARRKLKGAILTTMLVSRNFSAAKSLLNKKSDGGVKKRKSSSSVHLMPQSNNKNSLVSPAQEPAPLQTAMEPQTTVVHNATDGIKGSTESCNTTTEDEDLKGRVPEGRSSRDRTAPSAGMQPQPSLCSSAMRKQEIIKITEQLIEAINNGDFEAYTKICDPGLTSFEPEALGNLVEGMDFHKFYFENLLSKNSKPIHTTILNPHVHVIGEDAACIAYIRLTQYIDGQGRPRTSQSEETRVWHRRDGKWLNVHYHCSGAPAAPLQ
CDKL2 (human), sequence (Q92772 whole entry, looked up): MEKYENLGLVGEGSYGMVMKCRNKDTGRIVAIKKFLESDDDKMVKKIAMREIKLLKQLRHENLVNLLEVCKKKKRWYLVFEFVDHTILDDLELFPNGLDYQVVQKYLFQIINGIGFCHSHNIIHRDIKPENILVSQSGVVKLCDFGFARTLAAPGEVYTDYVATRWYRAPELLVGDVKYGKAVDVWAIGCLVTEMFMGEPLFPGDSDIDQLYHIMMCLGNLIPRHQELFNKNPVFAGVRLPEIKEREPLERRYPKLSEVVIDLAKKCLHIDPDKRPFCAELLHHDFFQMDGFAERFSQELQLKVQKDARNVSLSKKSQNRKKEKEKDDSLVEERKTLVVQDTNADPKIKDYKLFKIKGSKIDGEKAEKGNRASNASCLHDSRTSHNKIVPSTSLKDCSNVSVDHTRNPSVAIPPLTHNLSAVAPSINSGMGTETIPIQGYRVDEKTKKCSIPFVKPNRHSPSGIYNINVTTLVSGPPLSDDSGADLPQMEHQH

Question: `CN(C)C/C=C/C(=O)Nc1cccc(C(=O)Nc2ccc(Nc3nccc(-c4cccnc4)n3)cc2)c1` was tested. Which kinase still bound, per cent of control [1] did it give?
Answer: 39%

Question: What about the kinase still bound, per cent of control (AKT1 (human)) of the same compound?
Answer: 87%

Question: And the kinase still bound, per cent of control (AXL (human))?
Answer: 100%

Question: And the kinase still bound, per cent of control (CAMK2G (human))?
Answer: 99%

Question: And the kinase still bound, per cent of control (CDKL2 (human))?
Answer: 21%

Question: And the kinase still bound, per cent of control (CSNK1G2 (human))?
Answer: 12%

Question: And the kinase still bound, per cent of control (CSNK2A1 (human))?
Answer: 17%

Question: What about the kinase still bound, per cent of control (DAPK2 (human)) of the same compound?
Answer: 75%

Question: And the kinase still bound, per cent of control (EPHA7 (human))?
Answer: 86%

Question: And the kinase still bound, per cent of control (EPHB2 (human))?
Answer: 90%

Question: And the kinase still bound, per cent of control (ERN1 (human))?
Answer: 78%

Question: And the kinase still bound, per cent of control [2]?
Answer: 16%

Question: And the kinase still bound, per cent of control (GRK1 (human))?
Answer: 100%

Question: What about the kinase still bound, per cent of control [3] of the same compound?
Answer: 42%

Question: What about the kinase still bound, per cent of control [4] of the same compound?
Answer: 16%

Question: What about the kinase still bound, per cent of control (LATS2 (human)) of the same compound?
Answer: 73%

Question: What about the kinase still bound, per cent of control (LIMK2 (human)) of the same compound?
Answer: 82%

Question: And the kinase still bound, per cent of control (MAP3K7 (human))?
Answer: 34%

Question: And the kinase still bound, per cent of control (MATK (human))?
Answer: 99%

Question: What about the kinase still bound, per cent of control (MERTK (human)) of the same compound?
Answer: 100%

Question: And the kinase still bound, per cent of control [5]?
Answer: 100%

Question: And the kinase still bound, per cent of control (MST4 (human))?
Answer: 34%

Question: What about the kinase still bound, per cent of control (MUSK (human)) of the same compound?
Answer: 94%

Question: What about the kinase still bound, per cent of control (PAK4 (human)) of the same compound?
Answer: 79%

Question: What about the kinase still bound, per cent of control (PAK6 (human)) of the same compound?
Answer: 87%

Question: And the kinase still bound, per cent of control (PDGFRA (human))?
Answer: 67%

Question: What about the kinase still bound, per cent of control (PDPK1 (human)) of the same compound?
Answer: 93%

Question: And the kinase still bound, per cent of control (PI4KB (human))?
Answer: 71%

Question: And the kinase still bound, per cent of control (PIK3CA (human))?
Answer: 75%

Question: And the Kd (PIP4K2C (human))?
Answer: 32 nM

Question: What about the kinase still bound, per cent of control (PIP4K2C (human); compound 1.0 µM) of the same compound?
Answer: 3.3%

Question: What about the kinase still bound, per cent of control (PIP5K1C (human)) of the same compound?
Answer: 22%

Question: And the kinase still bound, per cent of control (PKMYT1 (human))?
Answer: 100%

Question: And the kinase still bound, per cent of control (PLK4 (human))?
Answer: 52%

Question: What about the kinase still bound, per cent of control (PRKACA (human)) of the same compound?
Answer: 83%

Question: And the kinase still bound, per cent of control (PRKG1 (human))?
Answer: 100%

Question: And the kinase still bound, per cent of control (PTK6 (human))?
Answer: 77%

Question: What about the kinase still bound, per cent of control (RIPK1 (human)) of the same compound?
Answer: 18%

Question: And the kinase still bound, per cent of control (STK36 (human))?
Answer: 30%

Question: What about the kinase still bound, per cent of control (SYK (human)) of the same compound?
Answer: 66%

Question: And the kinase still bound, per cent of control (TAOK3 (human))?
Answer: 94%

Question: And the kinase still bound, per cent of control (TESK1 (human))?
Answer: 88%

Question: And the kinase still bound, per cent of control (TNK1 (human))?
Answer: 67%

Question: And the kinase still bound, per cent of control (WEE2 (human))?
Answer: 100%
